Here are results for 39 compounds from patent US9216999B2, “Substituted pyrrolo[2,3-h][1,6]naphthyridines and compositions thereof as JAK inhibitors” (priority 2011, dated 2015).

Like-named read-outs stand apart in the source and are kept apart here.

For assay [1], the target named is JAK2 (Homo sapiens (Human), UniProt O60674). Nature of the assay: JAK2 enzyme assay (Assay Example^b 1).
For assay [2], the target named is JAK1 (Homo sapiens (Human), UniProt P23458). Nature of the assay: JAK1 enzyme assay (Assay Example^b 1).
Assay [3] deals with JAK3 (Homo sapiens (Human), UniProt P52333). Nature of the assay: JAK3 enzyme assay (Assay Example^b 1).
Assay [4] concerns the target Tyk2 (Homo sapiens (Human), UniProt P29597). Nature of the assay: Tyk2 enzyme assay (Assay Example^b 1).
Setting [5] is: IC50 (μM) JAK2, Table^b 79, ATP 100 μM.
The mark [6] stands for this setting: IC50 (μM) JAK1, Table^b 78, ATP 100 μM.
Where [7] appears, read: IC50 (μM) JAK3, Table^b 78, ATP 100 μM.
Setting [8] is: IC50 (μM) JAK1, Table^b 80, ATP 100 μM.
Setting [9] is: IC50 (μM) TYK2, Table^b 80, ATP 100 μM.
[10] abbreviates: IC50 (μM) JAK3, Table^b 80, ATP 100 μM.
Where [11] appears, read: IC50 (μM) TYK2, Table^b 79, ATP 100 μM.

Sequence of Tyk2 (P29597 whole entry): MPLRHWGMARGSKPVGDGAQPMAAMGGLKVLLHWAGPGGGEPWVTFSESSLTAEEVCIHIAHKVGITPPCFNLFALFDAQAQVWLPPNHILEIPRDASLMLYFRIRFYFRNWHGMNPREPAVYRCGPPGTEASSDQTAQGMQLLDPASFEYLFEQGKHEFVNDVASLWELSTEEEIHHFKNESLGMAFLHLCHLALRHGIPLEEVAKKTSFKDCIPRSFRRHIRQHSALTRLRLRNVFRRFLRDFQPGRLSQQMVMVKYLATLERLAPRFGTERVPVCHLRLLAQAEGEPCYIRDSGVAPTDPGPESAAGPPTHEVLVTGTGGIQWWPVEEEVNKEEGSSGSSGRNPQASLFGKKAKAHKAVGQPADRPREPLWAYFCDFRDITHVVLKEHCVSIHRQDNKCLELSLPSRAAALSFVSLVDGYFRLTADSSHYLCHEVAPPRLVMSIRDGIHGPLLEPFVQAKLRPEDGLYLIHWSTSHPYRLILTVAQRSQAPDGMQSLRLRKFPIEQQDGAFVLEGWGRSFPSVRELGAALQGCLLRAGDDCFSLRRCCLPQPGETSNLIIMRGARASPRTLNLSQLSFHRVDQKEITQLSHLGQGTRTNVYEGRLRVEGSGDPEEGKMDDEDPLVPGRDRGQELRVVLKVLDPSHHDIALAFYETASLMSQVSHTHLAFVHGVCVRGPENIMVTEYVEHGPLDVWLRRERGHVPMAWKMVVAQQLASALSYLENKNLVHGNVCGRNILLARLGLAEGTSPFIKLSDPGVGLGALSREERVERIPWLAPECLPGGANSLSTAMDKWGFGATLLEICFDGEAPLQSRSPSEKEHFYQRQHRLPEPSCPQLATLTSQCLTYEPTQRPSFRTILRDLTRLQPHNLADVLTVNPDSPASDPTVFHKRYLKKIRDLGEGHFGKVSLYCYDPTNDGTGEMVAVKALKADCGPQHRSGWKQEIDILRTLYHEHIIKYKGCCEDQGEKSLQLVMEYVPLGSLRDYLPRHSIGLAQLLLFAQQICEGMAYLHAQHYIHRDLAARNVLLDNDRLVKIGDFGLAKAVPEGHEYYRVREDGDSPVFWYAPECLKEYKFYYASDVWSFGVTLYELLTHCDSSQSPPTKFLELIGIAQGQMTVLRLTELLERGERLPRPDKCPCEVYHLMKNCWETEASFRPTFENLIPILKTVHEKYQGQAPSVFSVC
Sequence of JAK3 (P52333 whole entry): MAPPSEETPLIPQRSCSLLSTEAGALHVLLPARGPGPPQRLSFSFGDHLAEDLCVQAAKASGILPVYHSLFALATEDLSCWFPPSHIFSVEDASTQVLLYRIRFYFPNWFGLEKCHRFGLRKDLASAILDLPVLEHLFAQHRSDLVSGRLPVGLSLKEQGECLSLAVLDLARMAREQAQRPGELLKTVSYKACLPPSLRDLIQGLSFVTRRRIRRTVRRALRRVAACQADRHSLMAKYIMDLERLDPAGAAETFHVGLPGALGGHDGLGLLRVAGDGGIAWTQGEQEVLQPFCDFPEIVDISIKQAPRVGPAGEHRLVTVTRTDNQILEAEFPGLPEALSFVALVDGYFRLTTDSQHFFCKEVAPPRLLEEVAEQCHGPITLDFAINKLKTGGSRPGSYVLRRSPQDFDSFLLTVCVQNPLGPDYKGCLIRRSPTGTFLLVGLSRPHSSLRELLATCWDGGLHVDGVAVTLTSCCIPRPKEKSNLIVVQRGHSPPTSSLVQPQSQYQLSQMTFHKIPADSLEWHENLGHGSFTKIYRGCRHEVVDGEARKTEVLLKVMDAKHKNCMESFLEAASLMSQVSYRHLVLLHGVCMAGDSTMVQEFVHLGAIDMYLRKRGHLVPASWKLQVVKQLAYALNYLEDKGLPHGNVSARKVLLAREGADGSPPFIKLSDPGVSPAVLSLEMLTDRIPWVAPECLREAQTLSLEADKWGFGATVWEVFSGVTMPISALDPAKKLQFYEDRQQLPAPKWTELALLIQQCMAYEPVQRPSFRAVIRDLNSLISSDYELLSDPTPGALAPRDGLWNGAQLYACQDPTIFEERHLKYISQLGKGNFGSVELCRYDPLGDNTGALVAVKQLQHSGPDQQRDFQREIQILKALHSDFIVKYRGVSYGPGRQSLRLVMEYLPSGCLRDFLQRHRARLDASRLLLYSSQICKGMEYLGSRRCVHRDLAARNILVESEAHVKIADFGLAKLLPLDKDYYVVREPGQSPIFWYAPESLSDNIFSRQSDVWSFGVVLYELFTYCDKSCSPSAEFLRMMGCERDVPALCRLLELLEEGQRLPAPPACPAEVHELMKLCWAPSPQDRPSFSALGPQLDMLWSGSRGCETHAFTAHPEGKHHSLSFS

The compound `C[C@@H]1CCN(S(=O)(=O)CC(F)(F)F)C[C@@H]1n1ccc(=O)c2cnc3[nH]ccc3c21` (racemic) [compound 11] had an IC50 in assay [1] (setting [5]) of 0.033 µM.
Take `C[C@@H]1CCN(C(=O)CC#N)C[C@@H]1N1COCc2cnc3[nH]ccc3c21` (racemic) [compound 16]: the IC50 in assay [2] (setting [6]) turned out to be 0.038 µM; in assay [3] (setting [7]) it was 0.11 µM.
`Cc1cn([C@H]2CN(Cc3ccccc3)CC[C@H]2C)c2c(cnc3[nH]ccc32)c1=O` (racemic) [compound 23]: the IC50 in assay [2] (setting [8]) came out at 0.035 µM.
For `C[C@@H]1CCN(Cc2ccccc2)C[C@@H]1n1cc(Br)c(=O)c2cnc3[nH]ccc3c21` (racemic) [compound 24], the IC50 in assay [1] (IC50 (μM) JAK2) turned out to be 0.74 µM.
Still for that read-out and setting: the same measure for `C[C@@H]1CCN(S(=O)(=O)c2cccc(C(F)(F)F)c2)C[C@@H]1n1ccc(=O)c2cnc3[nH]ccc3c21` (racemic) [compound 33]: 0.12 µM.
In assay [4] (setting [9]), `C[C@@H]1CCN(C2CCCC2)C[C@@H]1n1ccc(=O)c2cnc3[nH]ccc3c21` (racemic) [compound 47] came in with an IC50 of more than 1 µM.
As to `CC1CCN(C(=O)C2CCC(C(C)(C)C)CC2)CC1n1ccc(=O)c2cnc3[nH]ccc3c21` (single isomer, unassigned) [Synthetic Example^b 48a, 1-{1-[4-(tert-Butyl)cyclohexanecarbonyl]-4-methylpiperidin-3-yl}-1H-pyrrolo[2,3-h][1,6]naphthyridin-4(7H)-one], the IC50 in assay [2] (setting [8]) was 0.14 µM; in assay [4] (setting [9]), more than 1 µM; in assay [3] (setting [10]), more than 1 µM.
Regarding `CC1CCN(C(=O)C2CCC(C(C)(C)C)CC2)CC1n1ccc(=O)c2cnc3[nH]ccc3c21` (single isomer, unassigned) [Synthetic Example^b 48b, 1-{1-[4-(tert-Butyl)cyclohexanecarbonyl]-4-methylpiperidin-3-yl}-1H-pyrrolo[2,3-h][1,6]naphthyridin-4(7H)-one], the IC50 in assay [2] (setting [8]) was 0.094 µM; in assay [4] (read-out: IC50 (μM) TYK2, Table^b 80, ATP 100 μM), more than 1 µM; in assay [3] (setting [10]) it was 0.36 µM.
For the compound `N#CCC[C@H]1CC[C@H](n2c(=O)[nH]c(=O)c3cnc4[nH]ccc4c32)CC1` [Synthetic Example^b 134, 3-[trans-4-(2,4-Dioxo-2,3,4,7-tetrahydro-1H-pyrrolo[3′,2′:5,6]pyrido[4,3-d]pyrimidin-1-yl)cyclohexyl]propanenitrile], the IC50 in assay [2] (IC50 (μM) JAK1, ATP 100 μM) was found to be 0.002 µM; in assay [4] (IC50 (μM) TYK2, ATP 100 μM), 0.032 µM; in assay [3] (IC50 (μM) JAK3, ATP 100 μM), 0.81 µM.
As to `CN(CC(F)(F)F)C[C@H]1CC[C@H](n2c(=O)[nH]c(=O)c3cnc4[nH]ccc4c32)CC1` [Synthetic Example^b 136, 1-(trans-4-{[Methyl(2,2,2-trifluoroethyl)amino]methyl}cyclohexyl)-1H-pyrrolo[3′,2′:5,6]pyrido[4,3-d]pyrimidine-2,4(3H,7H)-dione], the IC50 in assay [2] (IC50 (μM) JAK1, ATP 100 μM) was 0.0032 µM; in assay [3] (IC50 (μM) JAK3, ATP 100 μM) it was 0.75 µM.
Turning to `O=c1c2cnc3[nH]ccc3c2n(C2CCCCC2)c(=O)n1CC(F)(F)F` [Synthetic Example^b 139, 1-cyclohexyl-3-(2,2,2-trifluoroethyl)-1H-pyrrolo[3′,2′:5,6]pyrido[4,3-d]pyrimidine-2,4(3H,7H)-dione], the IC50 in assay [2] (IC50 (μM) JAK1, ATP 100 μM) was 0.1 µM; in assay [4] (IC50 (μM) TYK2, ATP 100 μM), more than 1 µM; in assay [3] (IC50 (μM) JAK3, ATP 100 μM), more than 1 µM.
Turning to `CC1OCN(C2CCCCC2)c2c1cnc1[nH]ccc21` (centres unmarked) [compound 1], the IC50 in assay [2] (setting [6]) is 0.38 µM; in assay [4] (setting [11]), 4.1 µM; in assay [3] (setting [7]), 2 µM.
For `c1cc2c3c(cnc2[nH]1)COCN3C1CCCCC1` [compound 2], the IC50 in assay [2] (setting [6]) was determined as 0.33 µM; in assay [1] (setting [5]), 1.9 µM.
In the case of `O=c1ccn(C2CCCCC2)c2c1cnc1[nH]ccc12` [compound 3], the IC50 was 0.017 µM in assay [2] (setting [6]) and 0.22 µM in assay [3] (setting [7]).
Turning to `O=S1(=O)C=CN(C2CCCCC2)c2c1cnc1[nH]ccc21` [compound 12], the IC50 in assay [2] (setting [6]) was 0.13 µM; in assay [4] (setting [11]), more than 1 µM.
For `O=C1NCc2cnc3[nH]ccc3c2N1C1CCCCC1` [compound 17], the IC50 in assay [1] (setting [5]) amounted to 0.02 µM; in assay [4] (setting [11]) it was 0.093 µM; in assay [3] (setting [7]), 0.69 µM.
`O=c1ncc2cnc3[nH]ccc3c2n1C1CCCCC1` [compound 18] yielded an IC50 in assay [4] (setting [11]) of 0.25 µM.
Regarding `O=c1ccn(C2CCCCC2)c2c1cnc1[nH]cnc12` [compound 20], the IC50 was 0.28 µM in assay [2] (setting [6]) and 0.76 µM in assay [4] (setting [11]).
`O=C1NCc2cnc3[nH]ccc3c2N1C1CCN(Cc2ccccc2)CC1` [compound 59]: the 50% inhibitory concentration (IC50) stood at 4.3 µM in assay [4] (setting [9]) and 2.1 µM in assay [3] (setting [10]).
Consider `O=C1NCc2cnc3[nH]ccc3c2N1C1CCN(Cc2cccnc2)CC1` [compound 61], for which the IC50 in assay [4] (setting [9]) turned out to be 3.6 µM.
In the case of `N#Cc1ccc(CN2CCC(N3C(=O)NCc4cnc5[nH]ccc5c43)CC2)cc1` [compound 62], the IC50 in assay [4] (setting [9]) and in assay [3] (setting [10]) was more than 1 µM throughout.
The compound `O=C1NCc2cnc3[nH]ccc3c2N1C1CCN(Cc2ccc(C(F)(F)F)cc2)CC1` [compound 63] came in with an IC50 in assay [2] (setting [8]) of 0.12 µM.
With `O=C(CC(F)(F)F)N1CCC(N2C(=O)NCc3cnc4[nH]ccc4c32)CC1` [compound 65], the IC50 in assay [4] (setting [9]) came out at 2.9 µM; in assay [3] (setting [10]) it was 9.5 µM.
In assay [2] (setting [8]), `Cc1nc(CN2CCC(n3ccc(=O)c4cnc5[nH]ccc5c43)CC2)cs1` [compound 86] came in with an IC50 of 0.043 µM.
With `O=c1[nH]c(=O)n(C2CCN(CCC3CCOCC3)CC2)c2c1cnc1[nH]ccc12` [compound 93], in assay [3] (IC50 (μM) JAK3, ATP 100 μM), the 50% inhibitory concentration (IC50) was more than 1 µM.
On to `N#CC=CC1CCC(n2c(=O)[nH]c(=O)c3cnc4[nH]ccc4c32)CC1` (centres unmarked) [compound 103], for which the IC50 in assay [3] (IC50 (μM) JAK3, ATP 100 μM) is more than 1 µM.
As to `O=c1[nH]c(=O)n(C2CCN(CCNCC3CC3)CC2)c2c1cnc1[nH]ccc12` [compound 110], the IC50 is 0.42 µM in assay [2] (IC50 (μM) JAK1, ATP 100 μM) and more than 1 µM in assay [1] (IC50 (μM) JAK2, ATP 100 μM).
In assay [2] (IC50 (μM) JAK1, ATP 100 μM), `O=c1[nH]c(=O)n([C@H]2CC[C@H](CN3CC[C@@H](O)C3)CC2)c2c1cnc1[nH]ccc12` [compound 112] had an IC50 of 0.0026 µM.
`O=c1[nH]c(=O)n(C2CCC(CNCC3CC3)CC2)c2c1cnc1[nH]ccc12` (centres unmarked) [compound 117]: the IC50 in assay [2] (IC50 (μM) JAK1, ATP 100 μM) was 0.03 µM; in assay [3] (IC50 (μM) JAK3, ATP 100 μM), more than 1 µM.
The compound `O=c1[nH]c(=O)n(C2CCC(CN(CCO)Cc3ccccc3)CC2)c2c1cnc1[nH]ccc12` (centres unmarked) [compound 121] showed a concentration for half-maximal inhibition (IC50) in assay [3] (IC50 (μM) JAK3, ATP 100 μM) of more than 1 µM.
As to `N#CCC1CN(C[C@H]2CC[C@H](n3c(=O)[nH]c(=O)c4cnc5[nH]ccc5c43)CC2)C1` [compound 124], the IC50 in assay [3] (IC50 (μM) JAK3, ATP 100 μM) was more than 1 µM.
The compound `O=c1[nH]c(=O)n([C@H]2CC[C@H](CNCC3(O)CCCCC3)CC2)c2c1cnc1[nH]ccc12` [compound 126] came in with a half-maximal inhibitory concentration (IC50) in assay [3] (IC50 (μM) JAK3, ATP 100 μM) of more than 1 µM.
On to `O=CC1CCC(n2c(=O)[nH]c(=O)c3cnc4[nH]ccc4c32)CC1` (centres unmarked) [compound 133], for which the IC50 in assay [2] (IC50 (μM) JAK1, ATP 100 μM) is 0.012 µM; in assay [4] (IC50 (μM) TYK2, ATP 100 μM), 0.41 µM; in assay [3] (IC50 (μM) JAK3, ATP 100 μM), more than 1 µM.
For `O=c1c2cnc3[nH]ccc3c2n(C2CCCCC2)c(=O)n1CCN1CCOCC1` [compound 142], the IC50 in assay [3] (IC50 (μM) JAK3, ATP 100 μM) was more than 1 µM.
In assay [3] (IC50 (μM) JAK3, ATP 100 μM), `CC(CO)(CO)Cn1c(=O)c2cnc3[nH]ccc3c2n(C2CCCCC2)c1=O` [compound 151] registered an IC50 of more than 1 µM.
`CN(C)C(=O)Cn1c(=O)c2cnc3[nH]ccc3c2n(C2CCCCC2)c1=O` [compound 152]: in assay [3] (IC50 (μM) JAK3, ATP 100 μM), the half-maximal inhibitory concentration (IC50) was 0.48 µM.
In the case of `CN(C)CCn1c(=O)c2cnc3[nH]ccc3c2n(C2CCCCC2)c1=O` [compound 153], the half-maximal inhibitory concentration (IC50) in assay [3] (IC50 (μM) JAK3, ATP 100 μM) was more than 1 µM.
In assay [3] (IC50 (μM) JAK3, ATP 100 μM), `O=c1c2cnc3[nH]ccc3c2n(C2CCCCC2)c(=O)n1C1CCNCC1` [compound 154] returned an IC50 of more than 1 µM.
`O=C(CC(F)(F)F)N(CC(F)(F)F)C[C@H]1CC[C@H](n2c(=O)[nH]c(=O)c3cnc4[nH]ccc4c32)CC1` [compound 155]: the half-inhibitory concentration (IC50) in assay [2] (IC50 (μM) JAK1, ATP 100 μM) was determined as 0.0021 µM; in assay [1] (IC50 (μM) JAK2, ATP 100 μM) it was 0.055 µM.

By IC50 is commonly meant the concentration at which inhibition is half-maximal.
